From ChEMBL document CHEMBL5096229, “A 1,2,3-Triazole Derivative of Quinazoline Exhibits Antitumor Activity by Tethering RNF168 to SQSTM1/P62” (J Med Chem, 2022)
Calls of active or inactive are those of the source. No cut-off for these calls is given here.

Key:
[1] = Cytotoxicity against human MCF-10A cells assessed as reduction in cell viability incubated for 72 hrs by MTS assay; format: toxicity, cell-based
[2] = system: HepG2; assay: Cytotoxicity against human HepG2 cells assessed as reduction in cell viability incubated for 72 hrs by MTS assay; format: functional, cell-based; details: HepG2, 72 h
[3] = system: A-375; assay: Cytotoxicity against human A-375 cells assessed as reduction in cell viability incubated for 72 hrs by MTS assay; format: functional, cell-based; details: A-375, 72 h
[4] = system: HeLa; assay: Induction of x-ray sensitivity in human HeLa cells; format: functional, cell-based
[5] = system: HCT-116; assay: Induction of cell cycle arrest in human HCT-116 cells assessed as accumulation at G0/G1 phase at 1 uM after 24 hrs by propidium iodide-staining based flow cytometry (reference value: 58.01 +/- 1.77%); format: functional
[6] = Toxicity in BALB/c nude mouse assessed as diarrhea 12.5 mg/kg, ip after 7 days; format: organism-based; details: in vivo, 168 h, time 7 day
[7] = system: HCT-116; assay: Antitumor activity against human HCT-116 cells xenografted with BALB/c nude mouse assessed as increase in cleaved PARP1 positive tumor cells at 5 to 10 mg/kg, ip administered every 3 days upto 22 days by immuno histochemistry assay; format: functional, organism-based; details: dose 5-10 mg/kg, time <= 22.0 day
[8] = AUCt in BALB/c mouse at 10 mg/kg; format: ADME, organism-based; set-up: dose 10 mg/kg; details: in vivo
[9] = system: HCT-116; assay: Induction of cell cycle arrest in human HCT-116 cells assessed as accumulation at S phase at 2 uM after 24 hrs by propidium iodide-staining based flow cytometry (reference value: 17.17 +/- 0.18%); format: functional
[10] = system: MDA-MB-231; assay: Cytotoxicity against human MDA-MB-231 cells assessed as reduction in cell viability incubated for 72 hrs by MTS assay; format: functional, cell-based; details: MDA-MB-231, 72 h
[11] = AUCt in BALB/c mouse at 20 mg/kg; format: ADME, organism-based; set-up: dose 20 mg/kg; details: in vivo
[12] = biological target: T1, Androgen receptor (Homo sapiens) (UniProt P10275); assay: Inhibition of AR (unknown origin) at 10 uM
T1 sequence (whole entry): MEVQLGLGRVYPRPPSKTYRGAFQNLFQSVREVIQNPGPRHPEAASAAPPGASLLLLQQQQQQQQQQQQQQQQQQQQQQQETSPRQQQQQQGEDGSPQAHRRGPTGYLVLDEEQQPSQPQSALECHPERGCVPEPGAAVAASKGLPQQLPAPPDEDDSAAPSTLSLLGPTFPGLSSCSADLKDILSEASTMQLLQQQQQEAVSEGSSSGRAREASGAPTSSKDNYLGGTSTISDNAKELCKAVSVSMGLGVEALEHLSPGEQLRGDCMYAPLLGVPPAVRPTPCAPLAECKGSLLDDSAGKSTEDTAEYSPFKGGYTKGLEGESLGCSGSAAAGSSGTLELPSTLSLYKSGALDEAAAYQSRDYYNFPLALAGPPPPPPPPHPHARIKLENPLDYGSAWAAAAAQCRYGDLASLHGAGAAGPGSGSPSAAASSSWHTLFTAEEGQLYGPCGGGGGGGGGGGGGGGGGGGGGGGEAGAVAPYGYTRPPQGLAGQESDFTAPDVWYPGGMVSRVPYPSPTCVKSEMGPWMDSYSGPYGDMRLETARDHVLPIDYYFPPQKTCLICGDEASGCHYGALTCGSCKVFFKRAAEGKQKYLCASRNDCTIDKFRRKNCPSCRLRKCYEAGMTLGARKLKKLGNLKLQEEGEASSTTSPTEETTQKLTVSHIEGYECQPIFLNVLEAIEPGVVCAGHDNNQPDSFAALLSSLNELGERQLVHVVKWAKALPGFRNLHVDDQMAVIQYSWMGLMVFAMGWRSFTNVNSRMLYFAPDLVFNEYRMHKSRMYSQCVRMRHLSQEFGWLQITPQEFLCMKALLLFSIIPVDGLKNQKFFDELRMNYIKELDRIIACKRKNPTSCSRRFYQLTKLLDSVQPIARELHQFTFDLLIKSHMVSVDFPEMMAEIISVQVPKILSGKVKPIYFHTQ

[13] = system: U2OS; assay: Cytotoxicity against human U2OS cells assessed as reduction in cell viability incubated for 72 hrs by MTS assay; format: functional, cell-based
[14] = AUCt in BALB/c mouse at 5 mg/kg; format: ADME, organism-based; set-up: dose 5 mg/kg; details: in vivo
[15] = system: Bacteria; assay: Binding affinity to N-terminal His-tagged bacteria P62; details: filed as activator
[16] = Toxicity in BALB/c nude mouse assessed as changes in body weight at 5 to 10 mg/kg, ip administered every 3 days upto 22 days; format: organism-based; details: in vivo, 528 h, dose 5-10 mg/kg, time < 22 day
[17] = system: HCT-116; assay: Induction of cell cycle arrest in human HCT-116 cells assessed as accumulation at G0/G1 phase at 5 uM after 24 hrs by propidium iodide-staining based flow cytometry (reference value: 58.01 +/- 1.77%); format: functional
[18] = system: MGC-803; assay: Cytotoxicity against human MGC-803 cells assessed as reduction in cell viability incubated for 72 hrs by MTS assay; format: functional, cell-based; details: MGC-803, 72 h
[19] = system: A549; assay: Cytotoxicity against human A549 cells assessed as reduction in cell viability incubated for 72 hrs by MTS assay; format: functional, cell-based; details: A549, 72 h
[20] = Cmax in BALB/c mouse at 20 mg/kg; format: ADME, organism-based; set-up: dose 20 mg/kg; details: in vivo
[21] = Toxicity in BALB/c mouse assessed as diarrhea at 100 mg/kg, ip after 7 days; format: organism-based; details: in vivo, 168 h, time 7 day
[22] = system: HCT-116; assay: Antitumor activity against human HCT-116 cells xenografted with BALB/c nude mouse assessed as tumor growth inhibition at 5 to 10 mg/kg, ip administered every 3 days upto 22 days by H and E staining based assay; format: functional, organism-based; details: dose 5-10 mg/kg, time <= 22.0 day
[23] = system: HCT-116; assay: Induction of x-ray sensitivity in human HCT-116 cells; format: functional, cell-based
[24] = system: U2OS; assay: Inhibition of homologous recombinant repair in human U2OS cells assessed as I-SceI induced double […] break pretreated with I-SceI for 36 hrs followed by compound addition and measured after 12 hrs; format: functional, cell-based; details: dose 0.625-2.5 µM, DDE = dose-dependent effect
[25] = system: HCT-116; assay: Induction of cell cycle arrest in human HCT-116 cells assessed as accumulation at G2/M phase at 2 uM after 24 hrs by propidium iodide-staining based flow cytometry (reference value: 23.25 +/- 1.38%); format: functional
[26] = system: HCT-116; assay: Cytotoxicity against human HCT-116 cells assessed as reduction in cell viability incubated for 72 hrs by MTS assay; format: functional, cell-based; details: HCT-116, 72 h
[27] = Toxicity in BALB/c mouse assessed as maximum tolerable dose; details: in vivo
[28] = Toxicity in BALB/c nude mouse assessed as maximum tolerable dose; details: in vivo
[29] = Toxicity in BALB/c nude mouse assessed as diarrhea 25 mg/kg, ip after 7 days; format: organism-based; details: in vivo, 168 h, time 7 day
[30] = system: HCT-116; assay: Induction of cell cycle arrest in human HCT-116 cells assessed as accumulation at S phase at 1 uM after 24 hrs by propidium iodide-staining based flow cytometry (reference value: 17.17 +/- 0.18%); format: functional
[31] = Half life in BALB/c mouse at 5 mg/kg; format: ADME, organism-based; details: in vivo
[32] = system: HCT-116; assay: Induction of P62 to RNF168 protein-protein interaction in human HCT-116 cells lysates by co-immunoprecipitation assay; format: subcellular

`COc1cc(-n2cc(-c3ccc4nc(N)nc(N)c4c3)nn2)cc(OC)c1OC` showed an IC50 at 72 h [1] of 6.98 µM, an IC50 [2] of 19.6 µM and an IC50 [3] of 1.93 µM. The Activity [4] was “Active”, the Activity [5] was 53% and the Activity [6] was “Toxic”. For the same molecule, the Activity [7] was “Active”, the AUC(0-t) [8] was 408 ng·h/mL and the Activity [9] was 21.51%. The IC50 [10] was 1.17 µM, the AUC(0-t) [11] was 1000 ng·h/mL and the inhibition [12] was “Active”. For the same molecule, the IC50 [13] was 3.64 µM, the AUC(0-t) [14] was 215 ng·h/mL and the Activity [15] was “Active”. The Activity [16] was “Non-Toxic”, the Activity [17] was 50.82% and the IC50 [18] was 1.88 µM. For the same molecule, the IC50 [19] was 1.18 µM, the Cmax [20] was 52.2 ng/mL and the Activity [21] was “Toxic”. The Activity [22] was “Active”, the Activity [23] was “Active” and the inhibition [24] was “Dde”. For the same molecule, the Activity [25] was 30.79%, the IC50 [26] was 0.36 µM and the MTD [27] was 50 mg/kg. For the same molecule, the MTD [28] was 12.5 mg/kg, the Activity [29] was “Toxic” and the Activity [30] was 24.42%. For the same molecule, the half-life [31] was 16.2 h and the Activity [32] was “Active”.
